US12582688B2, “Compositions for the treatment of hypopigmentation” (University of Pretoria, priority 2021, dated 2026)
Where no end group is shown, it is not given here.

Experiments:
[1] = system: Primary human melanocytes and primary human keratinocytes; experiment: Melanin transfer in melanocyte/keratinocyte co-culture, immunofluorescence; type: cell-based; details: NHM/NHK co-culture, 24 hours
Description: Primary human melanocytes and primary human keratinocytes were cultured in normal Dulbecco's Modified Eagle's Medium (DMEM) containing melanocyte and keratinocyte growth factors respectively. Melanocytes (2.5×10^3 cells/well) were seeded on gelatine treated round coverslips in 24 well plates and were incubated at 37° C. for 72 hours. After the 72 hours the melanocyte medium was removed and medium (with a higher Ca concentration and keratinocyte growth factors) containing the keratinocytes (25×10^3 cells/well) was added to each well. The co-culture was incubated overnight to ensure that the keratinocytes attached. […] After 24 hours the treated cells and untreated cells were analysed with immunofluorescence ([…], et al., 2008). The 24-hour co-cultured cells were washed with PBS and fixed with MeOH (added at a temperature of -20° C.) and incubated for 4 minutes at -20° C. The fixed cells were washed with PBS to remove all the MeOH and incubated for 1 hour at room temperature with goat serum (0.5% in PBS) to remove effects of background noise. […] The washed coverslips were transferred to microscope slides containing mounting media and stored covered at 4° C., until analysed using the fluorescent microscope. The statistical significance in the melanin transfer results obtained for the different treatments, was determined with a student's T-test. […]

[2] = system: B16-F10 mouse melanocytes; experiment: Melanin production (intracellular and extracellular) in B16-F10 mouse melanocytes; type: cell-based; details: B16F10 cells, 72 hours; A. linearis at 500 μg/ml (highest concentration tested)
Description: Cultured B16F10 mouse melanocytes (passage number 6) were trypsinized (0.25% trypsin and 0.1% EDTA at 37° C. for 5-10 min). Cells (2×10^4 cells/well in 1.9 ml of MEM) were inoculated into 24-well plates using a pipette (FALCON 353046, Becton Dickinson Labware, NJ, U.S.A.), and incubated for 24 hours at 37° C. in the CO2 incubator. After 24-hour incubation, 100 μl of each sample solution was added to each well in duplicate, and the 24-well plate was incubated for 72 hours at 37° C. in the CO2 incubator. […] A 0.5% DMSO concentration was used as a negative control. After incubation, the cultured medium was removed, and assayed for extracellular melanin. The cultured medium was centrifuged (900 g, 20 min at 4° C.) to give a supernatant. One millilitre of a mixture of 0.4 M HEPES buffer (pH 6.8) and EtOH (9:1, v/v) was added to 1 ml of the supernatant was separated. The OD at 475 nm of the resulting solution was measured, and the amount of extracellular melanin was determined. The remaining melanocytes were digested by the addition of […] of CMF-D-PBS and trypsinized (0.25% trypsin and 0.1% EDTA at 37° C. for 5 to 10 min), and then incubated for 16 hours at room temperature. Spectrophotometric analysis of the amount of intracellular melanin was then performed at 475 nm.

Molecule | melanocyte dendricity and melanosomes in the dendrite tips [1] | melanosomes around the keratinocyte nuclei (positive keratinocytes) ([1]; versus untreated cells) | additional melanin extracellularly [2] | additional melanin intracellularly [2] | additional melanin produced than in the untreated cells (total) [2]
alpha melanocyte stimulating hormone (SYSMEHFRWGKPV; ends and bridges not checked; UniProt P01189 138-150, looked up) [α-MSH, positive control for melanin transfer] | increase in the fluorescence in the tip of the dendrites | higher presence of melanosomes around the keratinocyte nuclei | – | – | –
Cn1c(=O)c2[nH]cnc2n(C)c1=O [theophylline] | – | – | 19 µg/mL | 21 µg/mL | 40 µg/mL
